Data published in patent US10577400B2, “Method of manufacturing recombinant lectin protein and recombinant lectin protein manufactured by using the same” (NATIONAL MARINE BIODIVERSITY INSTITUTE OF KOREA, priority 2017, dated 2020).
In brackets after ≈: the same amount, converted by molar mass. Where two headings read alike, the source gives them in different places. Marks after values point to notes of the source that are not given here.

Legend:
Native BPL3 = assay: Inhibition of hemagglutination activity of Native BPL3 by sugars; assay type: cell-based, Bryopsis plumosa
rD2BPL3 = assay: Inhibition of hemagglutination activity of rD2BPL3 (refolded rBPL3) by sugars; assay type: cell-based, Bryopsis plumosa; details: for Minimum inhibitory concentration: inhibition of hemagglutination activity of rD2BPL3; for Concentration at which hemagglutination activity of rBPL3 was inhibited: refolded rBPL3, FIG. 8, running text
Procedure: FIG. 8 is a photograph showing that the activity of the refolded rBPL3 is inhibited by N-acetyl D-glucosamine and N-acetyl D-glactosamine. Referring to FIG. 8, experiments on inhibition of hemagglutination activity for 10 kinds of sugars including GlcNAc and GaINAc which inhibited hemagglutination activity of Native BPL3 were conducted.

Fetuin = assay: cell-based or functional assay
[1] = Glycan binding specificity, RayBio Glycan Array 100
Procedure: Affinity with glycans was measured using RayBio® Glycan Array 100. The rBPL3 and the Native BPL3 were conjugated with biotin and then dialyzed to remove unreacted biotin.
FIG. 9 is a graph for comparing glycan binding specificities of Native BPL3, rD1BPL3, and rD2BPL3.

[2] = biotin-conjugated lectin, FIG. 9

In the case of `CC(=O)N[C@H]1C(O)O[C@H](CO)[C@@H](O)[C@@H]1O` (stereo partly drawn) [N-acetyl-d-glucosamine], the Minimum inhibitory concentration (Native BPL3) is reported as 125 mM (≈ 27.7 mg/mL), the Minimum inhibitory concentration (rD2BPL3) is reported as 62.5 mM (≈ 13.8 mg/mL) and the “Concentration at which hemagglutination activity of rBPL3 was inhibited” value (rD2BPL3) is reported as 125 mM.

In the case of `OC[C@H]1O[C@H](O[C@H]2[C@H](O)[C@@H](O)[C@H](O)O[C@@H]2CO)[C@H](O)[C@@H](O)[C@@H]1O` [d-Maltose], the Minimum inhibitory concentration (Native BPL3) is reported as “NI (the absence of inhibition at 500 mM)” and the Minimum inhibitory concentration (rD2BPL3) is reported as “NI (the absence of inhibition at 500 mM)”.

With “Native BPL3 (Bryopsis plumosa lectin 3 derived from Bryopsis plumosa)” the Minimum inhibitory concentration (inhibition of hemagglutination activity) (Fetuin) was 19.5 µg/mL.

In the case of `O=C[C@@H](O)[C@@H](O)[C@H](O)[C@H](O)CO` [d-Mannose], the Minimum inhibitory concentration (Native BPL3) is reported as “NI (the absence of inhibition at 500 mM)”, the Minimum inhibitory concentration (Native BPL3; listed as α-Man) is reported as “not inhibited” and the Minimum inhibitory concentration (rD2BPL3) is reported as “NI (the absence of inhibition at 500 mM)”. The Minimum inhibitory concentration (rD2BPL3; listed as α-Man) was “not inhibited”.

For `O=C[C@H](O)[C@@H](O)[C@@H](O)[C@H](O)CO` [d-Galactose], the Minimum inhibitory concentration (Native BPL3) was “NI (the absence of inhibition at 500 mM)” and the Minimum inhibitory concentration (rD2BPL3) was “NI (the absence of inhibition at 500 mM)”.

In the case of `C[C@@H]1OC(O)[C@@H](O)[C@H](O)[C@@H]1O` (stereo partly drawn) [1-Fucose], the Minimum inhibitory concentration (Native BPL3) is reported as “NI (the absence of inhibition at 500 mM)” and the Minimum inhibitory concentration (rD2BPL3) is reported as “NI (the absence of inhibition at 500 mM)”.

With `O=C[C@H](O)[C@@H](O)[C@H](O)[C@H](O)CO` [d-Glucose] the Minimum inhibitory concentration (Native BPL3) was “NI (the absence of inhibition at 500 mM)” and the Minimum inhibitory concentration (rD2BPL3) was “NI (the absence of inhibition at 500 mM)”.

For `OC[C@H]1O[C@@H](O[C@H]2[C@H](O)[C@@H](O)[C@H](O)O[C@@H]2CO)[C@H](O)[C@@H](O)[C@H]1O` [β-Lactose], the Minimum inhibitory concentration (Native BPL3) was “NI (the absence of inhibition at 500 mM)” and the Minimum inhibitory concentration (rD2BPL3) was “NI (the absence of inhibition at 500 mM)”.

With `CC(=O)N[C@H]1C(O)O[C@H](CO)[C@H](O)[C@@H]1O` (stereo partly drawn) [N-acetyl-d-galactosamine] the Minimum inhibitory concentration (Native BPL3) was 62.5 mM (≈ 13.8 mg/mL), the Minimum inhibitory concentration (rD2BPL3) was 31.25 mM (≈ 6.91 mg/mL) and the “Concentration at which hemagglutination activity of rBPL3 was inhibited” value (rD2BPL3) was 62.5 mM.

For `O=C(CO)[C@@H](O)[C@H](O)[C@H](O)CO` [d-Fructose], the Minimum inhibitory concentration (Native BPL3) was “NI (the absence of inhibition at 500 mM)” and the Minimum inhibitory concentration (rD2BPL3) was “NI (the absence of inhibition at 500 mM)”.

B1: rD2BPL3 (recombinant BPL3 lectin obtained by the gene having the repeating structure) (protein, part only; not given: spacer and vector tag, not shown: small tags and cut ends)
chain, part: TDVGSVQVRGLGDRSSCPVKPWTTAQTSAREKVVSVKFDIPYSSTPKVALSLSGMDMDTKYNTRINTSVENLTNEGFDLKVGVWCNTYAYMLDVTYVVVPAPYAAGTDVGSVQVRGLGDRSSCPVKPWTTAQTSAREKVVSVKFDIPYSSTPKVALSLSGMDMDTKYNTRINTSVENLTNEGFDLKVGVWCNTYAYMLDVTYVVVPAPYAAG
Work on B1 yielded a Minimum inhibitory concentration (inhibition of hemagglutination activity) (Fetuin) of 4.88 µg/mL.

B2: Native BPL3: BPL3 (Bryopsis plumosa lectin) derived from bryopsis plumosa, comparative target (protein)
chain: TDVGSVQVRGLGDRSSCPVKPWTTAQTSAREKVVSVKFDIPYSSTPKVALSLSGMDMDTKYNTRINTSVENLTNEGFDLKVGVWCNTYAYMLDVTYVVVPAPYAAG
modifications: bryopsis plumose-derived BPL3 gene
notes: BPL3 (Bryopsis plumosa lectin) derived from bryopsis plumosa, comparative target
In the case of B2, the “Glycan giving a strong signal” value [1, 2] is reported as “strong signal for a glycan of Gal-β-1,3-GaINAc-α-Sp”, the “Number of glycans reacted with, of 100 glycans” value [1, 2] is reported as 5 and the “Binding to α-Man-Sp” value ([1]; glycan array) is reported as “specifically bound”. The “Binding to β-GlcNAc-Sp” value ([1]; glycan array) was “does not react”.

B3: Fetuin (protein, UniProt P12763 19-359, looked up)
Alpha-2-HS-glycoprotein: IPLDPVAGYKEPACDDPDTEQAALAAVDYINKHLPRGYKHTLNQIDSVKVWPRRPTGEVYDIEIDTLETTCHVLDPTPLANCSVRQQTQHAVEGDCDIHVLKQDGQFSVLFTKCDSSPDSAEDVRKLCPDCPLLAPLNDSRVVHAVEVALATFNAESNGSYLQLVEISRAQFVPLPVSVSVEFAVAATDCIAKEVVDPTKCNLLAEKQYGFCKGSVIQKALGGEDVRVTCTLFQTQPVIPQPQPDGAEAEAPSAVPDAAGPTPSAAGPPVASVVVGPSVVAVPLPLHRAHYDLRHTFSGVASVESSSGEAFHVGKTPIVGQPSIPGGPVRLCPGRIRYFKI
In the case of B3, the Minimum inhibitory concentration (Native BPL3; concentration in μg/mL) is reported as 19.53^§ μg/mL and the Minimum inhibitory concentration (rD2BPL3; concentration in μg/mL) is reported as 4.88^§ μg/mL.
